In US10201523B2, “Use of wilforlide A for overcoming chemotherapy resistance” (WESTERN UNIVERSITY OF HEALTH SCIENCES, priority 2013, dated 2019):
“And” between values parts separate entries of the source, which are not always exact repeats. Equal values may be shown once.

Experiments:
PC3 = assay: SRB cell viability assay, docetaxel with/without wilforlide A pretreatment; settings: PC3; for A at 565 nm: background = 0.044
DU145-TxR = assay: as above; assay type: cell-based; settings: DU145-TxR; for viability at 1 pM / viability at 0.0001 µM / viability at 0.000333 µM / viability at 0.001 µM / viability at 0.00333 µM / viability at 0.01 µM / viability at 0.0333 µM / viability at 0.1 µM: 72 h; for A at 565 nm: background = 0.046
Description: FIG. 4 summarizes the data of Tables 18 and 19 in a graphical format.

[1] = wilforlide A 2.5 μg/ml pre-Tx, docetaxel 0.001 nM 72 h
[2] = wilforlide A 2.5 μg/ml pre-Tx, docetaxel 0.1 nM 72 h
[3] = wilforlide A 2.5 μg/ml pre-Tx, docetaxel 0.333 nM 72 h
[4] = wilforlide A 2.5 μg/ml pre-Tx, docetaxel 1 nM 72 h
[5] = wilforlide A 2.5 μg/ml pre-Tx, docetaxel 3.33 nM 72 h
[6] = wilforlide A 2.5 μg/ml pre-Tx, docetaxel 10 nM 72 h
[7] = wilforlide A 2.5 μg/ml pre-Tx, docetaxel 33.3 nM 72 h
[8] = wilforlide A 2.5 μg/ml pre-Tx, docetaxel 100 nM 72 h
[9] = wilforlide A […] pre-Tx, docetaxel 0.001 nM 72 h
[10] = wilforlide A […] pre-Tx, docetaxel 0.1 nM 72 h
[11] = wilforlide A […] pre-Tx, docetaxel 0.333 nM 72 h
[12] = wilforlide A […] pre-Tx, docetaxel 1 nM 72 h
[13] = wilforlide A […] pre-Tx, docetaxel 3.33 nM 72 h
[14] = wilforlide A […] pre-Tx, docetaxel 10 nM 72 h
[15] = wilforlide A […] pre-Tx, docetaxel 33.3 nM 72 h
[16] = wilforlide A […] pre-Tx, docetaxel 100 nM 72 h
[17] = no wilforlide A pre-Tx, docetaxel 0.001 nM 72 h
[18] = no wilforlide A pre-Tx, docetaxel 0.1 nM 72 h
[19] = no wilforlide A pre-Tx, docetaxel 0.333 nM 72 h
[20] = no wilforlide A pre-Tx, docetaxel 1 nM 72 h
[21] = no wilforlide A pre-Tx, docetaxel 3.33 nM 72 h
[22] = no wilforlide A pre-Tx, docetaxel 10 nM 72 h
[23] = no wilforlide A pre-Tx, docetaxel 33.3 nM 72 h
[24] = no wilforlide A pre-Tx, docetaxel 100 nM 72 h

IC50 (PC3; read-out: Drug IC50 after wilforlide A pre-Tx, pre-Tx amount of wilforlide A printed as none added): 1.61 nM
SMILES: CC(=O)O[C@@]12CO[C@@H]1C[C@H](O)[C@@]1(C)C(=O)[C@H](O)C3=C(C)[C@@H](OC(=O)[C@H](O)[C@@H](NC(=O)OC(C)(C)C)c4ccccc4)C[C@@](O)([C@@H](OC(=O)c4ccccc4)[C@H]21)C3(C)C [docetaxel]
% viable (PC3; [1]): 100.0%
mean A (PC3; [1]): 1.752
% viable (PC3; [2]): 101.9%
mean A (PC3; [2]): 1.786
% viable (PC3; [3]): 94.1%
mean A (PC3; [3]): 1.648
A at 565 nm (PC3; [3]): 1.672
% viable (PC3; [4]): 69.8%
mean A (PC3; [4]): 1.222
A at 565 nm (PC3; [4]): 1.201
% viable (PC3; [5]): 43.9%
mean A (PC3; [5]): 0.769
A at 565 nm (PC3; [5]): 0.810
% viable (PC3; [6]): 23.0%
mean A (PC3; [6]): 0.403
A at 565 nm (PC3; [6]): 0.402
% viable (PC3; [7]): 19.2%
mean A (PC3; [7]): 0.336
A at 565 nm (PC3; [7]): 0.358
% viable (PC3; [8]): 18.4%
mean A (PC3; [8]): 0.322
A at 565 nm (PC3; [8]): 0.318
% viable (PC3; [9]): 100.0%
mean A (PC3; [9]): 1.957
% viable (PC3; [10]): 100.4%
mean A (PC3; [10]): 1.965
% viable (PC3; [11]): 92.2%
mean A (PC3; [11]): 1.804
% viable (PC3; [12]): 67.0%
mean A (PC3; [12]): 1.311
% viable (PC3; [13]): 41.7%
mean A (PC3; [13]): 0.816
% viable (PC3; [14]): 23.9%
mean A (PC3; [14]): 0.467
% viable (PC3; [15]): 19.1%
mean A (PC3; [15]): 0.373
% viable (PC3; [16]): 18.4%
mean A (PC3; [16]): 0.361
viability at 1 pM (DU145-TxR; [17]): 100%
viability at 0.0001 µM (DU145-TxR; [18]): 104%
viability at 0.000333 µM (DU145-TxR; [19]): 99%
viability at 0.001 µM (DU145-TxR; [20]): 98.2%
viability at 0.00333 µM (DU145-TxR; [21]): 98.5%
viability at 0.01 µM (DU145-TxR; [22]): 101%
viability at 0.0333 µM (DU145-TxR; [23]): 99.2%
viability at 0.1 µM (DU145-TxR; [24]): 97.4%
viability at 1 pM (DU145-TxR; [1]): 100%
viability at 0.0001 µM (DU145-TxR; [2]): 104%
viability at 0.000333 µM (DU145-TxR; [3]): 102%
viability at 0.001 µM (DU145-TxR; [4]): 104%
viability at 0.00333 µM (DU145-TxR; [5]): 98.4%
viability at 0.01 µM (DU145-TxR; [6]): 102%
viability at 0.0333 µM (DU145-TxR; [7]): 94.1%
viability at 0.1 µM (DU145-TxR; [8]): 44.7%
mean A (DU145-TxR; [17]): 2.257
A at 565 nm (DU145-TxR; [17]): 2.285 and 2.199 and 2.289
mean A (DU145-TxR; [18]): 2.346
A at 565 nm (DU145-TxR; [18]): 2.354 and 2.413 and 2.272
mean A (DU145-TxR; [19]): 2.235
A at 565 nm (DU145-TxR; [19]): 2.281 and 2.251 and 2.175
mean A (DU145-TxR; [20]): 2.216
A at 565 nm (DU145-TxR; [20]): 2.279 and 2.233 and 2.137
mean A (DU145-TxR; [21]): 2.224
A at 565 nm (DU145-TxR; [21]): 2.207 and 2.230 and 2.236
mean A (DU145-TxR; [22]): 2.272
A at 565 nm (DU145-TxR; [22]): 2.254 and 2.359 and 2.203
mean A (DU145-TxR; [23]): 2.239
A at 565 nm (DU145-TxR; [23]): 2.145 and 2.270 and 2.303
mean A (DU145-TxR; [24]): 2.198
A at 565 nm (DU145-TxR; [24]): 2.153 and 2.224 and 2.217
mean A (DU145-TxR; [1]): 2.137
A at 565 nm (DU145-TxR; [1]): 2.092 and 2.151 and 2.170
mean A (DU145-TxR; [2]): 2.220
A at 565 nm (DU145-TxR; [2]): 2.248 and 2.263 and 2.151
mean A (DU145-TxR; [3]): 2.169
A at 565 nm (DU145-TxR; [3]): 2.187 and 2.102 and 2.218
mean A (DU145-TxR; [4]): 2.217
A at 565 nm (DU145-TxR; [4]): 2.177 and 2.229 and 2.246
mean A (DU145-TxR; [5]): 2.103
A at 565 nm (DU145-TxR; [5]): 2.064 and 2.090 and 2.155
mean A (DU145-TxR; [6]): 2.176
A at 565 nm (DU145-TxR; [6]): 2.171 and 2.204 and 2.155
mean A (DU145-TxR; [7]): 2.011
A at 565 nm (DU145-TxR; [7]): 2.086 and 2.018 and 1.930
mean A (DU145-TxR; [8]): 0.956
A at 565 nm (DU145-TxR; [8]): 0.987 and 0.926 and 0.957
